The numbers were not newly measured in patent US8571804B2, “Disease treatment by predicting drug association” (Pharnext, priority 2007, dated 2013), which cites them from elsewhere.

For series [1], the system named is PMP22-transgenic CMT1A rat model.

Take `O=C1O[C@H]([C@@H](O)CO)C(O)=C1O` [ascorbic acid]: the clinical features entry in the series on CMT animal models is reported as “improve clinical features”.

Regarding `CN(C)c1ccc([C@H]2C[C@]3(C)[C@@H](CC[C@]3(O)CCCO)[C@@H]3CCC4=CC(=O)CCC4=C32)cc1` [onapristone], in series [1] (compared with placebo-treated controls), the clinical symptoms result is given as “significantly improved clinical symptoms”. Besides, the “expression of PMP22 protein” value in series [1] (transgenic rodents, antiprogestin treatment) is reported as “decreased expression of PMP22 protein”.
